This note sets out measurements from patent publication US4404206A, “Substituted iminoacid derivatives, process for preparing them and their use as enzyme inhibitors” (Science Union et Cie, priority 1979, dated 1983).

The test system of the assay is enzyme responsible for the conversion of angiotension I into angiotension II. Description: Inhibition of the angiotensin I pressor response in dogs after intravenous administration (arterial pressure recorded). The assay is classed as in vivo. The note with it: dog. The protocol: The compounds of the invention are tested in […] dogs, maintained in forced respiration by an apparatus.
The aorta is catheterized by way of the femoral arteria, and the arterial pressure is registered by an appropriate instrument.
Angiotension I and II are administered to the animals intravenously at the dose of 0.3 γ/Kg. After registering of the dose/activity relation curve, the compounds of the invention are administered also by the intravenous route and modification of the blood pressure is also registered.
The results obtained by the new compounds are summarized in the table hereinafter and are expressed in percentage of inhibition of the enzyme activity. The numbers in the brackets indicate the dose of the active enantiomer contained in the administered doses.

Where [1] appears, read: dose 20 mg/Kg IV, time 15 minutes.
Setting [2] is: dose 20 mg/Kg IV, time 30 minutes.
Where [3] appears, read: dose 20 mg/Kg IV, time 1 h 30 min.
[4] abbreviates: dose 10 (2,5) mg/Kg IV, time 15 minutes.
[5] abbreviates: dose 10 (2,5) mg/Kg IV, time 30 minutes.
Where [6] appears, read: dose 10 (2,5) mg/Kg IV, time 1 h 30 min.
Where [7] appears, read: dose 10 (2,5) mg/Kg IV, time 1 hour.
Where [8] appears, read: dose 10 (2,5) mg/Kg IV, time 2 hours.
Where [9] appears, read: dose 10 (2,5) mg/Kg IV, time 3 hours.

`CC(CS)C(=O)N1Cc2ccsc2CC1C(=O)O` (racemic) [Example 6]: the “Percentage of inhibition (of the enzyme activity)” value (from here on “Percentage of inhibition”) reads like this: under setting [1], 47%; under setting [2], 51%; under setting [3], 30%; (dose 20 mg/Kg IV, time 1 hour) 37%; (dose 20 mg/Kg IV, time 2 hours) 26%; (dose 20 mg/Kg IV, time 3 hours) 23%.
For the compound `CC(CC(=O)O)C(=O)N1Cc2ccccc2C[C@H]1C(=O)O` (mixture of isomers) [Example 9, 2-[3-carboxy 2-(RS)methylpropionyl] 3-(S) carboxy 1,2,3,4-tetrahydroisoquinoline], the “Percentage of inhibition” value is given as 38% under setting [1]; 35% under setting [2]; 25% under setting [3]; 25% (dose 20 mg/Kg IV, time 1 hour); 48% (dose 20 mg/Kg IV, time 2 hours); 25% (dose 20 mg/Kg IV, time 3 hours).
Take `C[C@@H](CS)C(=O)N1CC2CCCCC2[C@@H]1C(=O)O` (mixture of isomers) [Example 7, N-[3-mercapto 2-(RS)methylpropionyl] 1-(RS) carboxy perhydroisoindole]: the “Percentage of inhibition” value amounted to 83% under setting [4]; 64% under setting [5]; 48% under setting [6]; 62% under setting [7]; 40% under setting [8]; 26% under setting [9].
For `CC(CS)C(=O)N1CC2CCCCC2CC1C(=O)O` (stereo not drawn) [Example 1, 2-(3-mercapto-2-(RS)-methylpropionyl)-cis-perhydroisoquinoline-3-carboxylicacid], the “Percentage of inhibition” value stood at 100% under setting [1]; 100% under setting [2]; 76% under setting [3]; 90% (dose 20 mg/Kg IV, time 1 hour); 70% (dose 20 mg/Kg IV, time 2 hours); 42% (dose 20 mg/Kg IV, time 3 hours).
Regarding `C[C@@H](CS)C(=O)N1C2CCCCC2C[C@@H]1C(=O)O` (mixture of isomers) [Example 5, N-[3-mercapto 2-(RS)methylpropionyl] 2-(RS) carboxy perhydroindole], the “Percentage of inhibition” value by setting is: (dose 5 (1,25) mg/Kg IV, time 15 minutes) 100%; (dose 5 (1,25) mg/Kg IV, time 30 minutes) 100%; (dose 5 (1,25) mg/Kg IV, time 1 h 30 min.) 90%; (dose 5 (1,25) mg/Kg IV, time 1 hour) 100%; (dose 5 (1,25) mg/Kg IV, time 2 hours) 71%; (dose 5 (1,25) mg/Kg IV, time 3 hours) 54%. Moreover, the “Percentage of inhibition” value by setting is: under setting [4], 100%; under setting [5], 92%; under setting [6], 92%; under setting [7], 92%; under setting [8], 92%; under setting [9], 86%.
As to `CC(CS)C(=O)N1C(C(=O)O)CCC2CCCCC21` (racemic) [Example 8, 1-[3 mercapto 2-(RS)methylpropionyl] 2-(RS) carboxy perhydroquinoline.], the “Percentage of inhibition” value is, setting by setting: under setting [4], 72%; under setting [5], 69%; under setting [6], 50%; under setting [7], 64%; under setting [8], 36%; under setting [9], 31%.
